Results from patent publication US20120040965A1, “SUBSTITUTED AZEPINO[4,3-B]INDOLES, PHARMACOLOGICAL COMPOSITION AND A METHOD FOR THE PRODUCTION AND USE THEREOF” (priority 2006, published 2012).

Tests used:
[1] = tested on: male mice of C57BL/6 line; assay: Acute toxicity in mice; type: in vivo; settings: for animals' death: 100 mg/kg
Description: Research of acute toxicity. Acute toxicity of the proposed compounds was determined in male mice of C57BL/6 line. […] Observation time was 14 days.

[2] = tested on: male mice of C57BL/6 line; assay: Test of familiar object recognition in a novel localization (spatial memory); type: in vivo; settings: for % of time investigating the object in a novel localization / % of time investigating the object in familiar localization: testing 48 hr after training; for effect on memory: doses of 1 mg/kg and 5 mg/kg
Excerpt: Testing of compounds of general formula 1 on spatial memory in test of novel object recognition. Test of novel object recognition is based on the fact that rats and mice investigate spontaneously a novel object or novel object localization (NL) for longer period of time than the known object or known object localization (KL). The test was tried on rats [A. Ennaceur and J. Delacour, A new one-trial test for neurobiological studies of memory in rats. 1: behavioral data. Behay. Brain Res. 1988, 31, 47-59; J. C. Dodart, C. Mathis and A. Ungerer, Scopolamine-induced deficits in a two-trial object recognition task in mice. NeuroReport 1997, 8, 1173-1178; C. Messier, Object recognition in mice: improvement of memory by glucose. Neurobiol. Learn. Mem. 1997, 67, 172-175; C. Pittenger, Y. Y. Huang, R. F. Paletzki, R. Bourtchouladze, H. Scanlin, S. Vronskaya et al., Reversible inhibition of CREB/ATF transcription factors in region CA1 of the dorsal hippocampus disrupts hippocampus-dependent spatial memory. Neuron 2002, 34, 447-462; A. E. Ryabinin, M. N. Miller and S. Durrant, Effects of acute alcohol administration on object recognition learning in C57BL/6J mice. Pharmacol. Biochem. Behay. 2002, 71, 307-312; F. Sargolini, P. Roullet, A. Oliverio and A. Mele, Effects of intra-accumbens focal administrations of glutamate antagonists on object recognition memory in mice. Behay. Brain Res. 2003, 138, 153-163].
Test of novel object recognition consists of two tests. The first one is novel object localization test use for examination of spatial memory, and the second one—test of novel object recognition for exploring non spatial memory [D. Gaffan, Amnesia for complex naturalistic scenes and for objects following formix transaction in the Rhesus monkey. Eur. J. Neurosci. 1992, 4, 381-388; B. Kolb, K. Buhrmann, R. McDonald and R. Sutherland, Dissociation of the medial prefrontal, posterior parietal, and posterior temporal cortex, for spatial navigation and recognition memory in the rat. Cereb. Cortex 1994, 6, 664-680; T. Steckler, W. H. I. M. Drinkenburgh, A. Sahgal and J. P. Aggleton, Recognition memory in rats. I. Concepts and classification. Prog. Neurobiol. 1998, 54, 289-311. T. Steckler, W. H. I. M. Drinkenburgh, A. Sahgal and J. P. Aggleton, Recognition memory in rats II. Neuroanatomical substrates. Prog. Neurobiol. 1998, 54, 313-332].
Methods of Investigation.
Subjects were male mice of 3-5 month age of C57BL/6 line, weighing 20-24 g. Animals were housed 5 per cage at light mode 12×12 hr with a light part from 8 till 20 o'clock with water and food available. Experimental setup was made of non-transparent white organic glass measuring 48×38×30 cm. As objects of recognition brown glass bottles measuring 2.7 cm diameter and 5.5 cm high were used. The cage and objects of recognition were wiped with 85% alcohol 2-3 min prior placing an animal in the cage. Animals were always placed in the cage centre. 40 Mg of compound of general formula 1 were dissolved in 0.2 ml of DMSO with the following addition of distilled water up to desired concentration. Solutions were prepared just before a trial. All experiments were carried out on two groups of 10 mice each. Animals were injected in dose 1 and 5 mg/kg in volume 0.05 ml on 10 g of animal weight one hour before the trial. The control animals were injected with an equal volume of distilled water.
Acquaintance with the behavioural cage. At the first test day mice were placed into a research chamber and allowed to acclimate for 20-30 min. After that each animal was placed for 10 minutes into an empty, previously treated with alcohol behavioural chamber for acclimation. Then the animal was placed into the cage and taken back to vivarium.
Training. Next day the same mice were placed into a behavioural chamber and allowed to explore for 20-30 min; after acclimation animals were injected intragastrically by the solution of tested compound. […]

[3] = dose 1 mg/kg intragastrically one hour before training
[4] = dose 5 mg/kg intragastrically one hour before training

SMILES	duration of sedative action ([1]; doses 100 and 50 mg/kg, mice) [h]	onset of sedative action after injection ([1]; doses 100 and 50 mg/kg, mice) [min]	sedative action ([1]; doses 100 and 50 mg/kg, mice)	sedative action ([1]; doses of 1 and 5 mg/kg, mice)	animals' death ([1]; unitary introduction into stomach, 14 days of watching)	% of time investigating the object in a novel localization [2, 3] [%]	% of time investigating the object in familiar localization [2, 3] [%]	% of time investigating the object in a novel localization [2, 4] [%]	% of time investigating the object in familiar localization [2, 4] [%]	effect on memory [2]	animals' death ([1]; mouse, in vivo)
Cc1ccc2c(c1)[C@@H]1CN(C)CCC[C@H]1N2Cc1ccccn1.Cl.Cl (relative stereo) [1.2.6(4)HCl, trans-2,9-dimethyl-6-[(pyridin-2-yl)methyl]-1,2,3,4,5,5a,6,10b-octahydroazepino[4,3-b]indole dihydrochloride]	> 24	5 to 10	pronounced sedative action	not observed	do not cause animals' death	49.11±3.3	41.3±9.7	60.1±9.0	39.9±9.0	stimulating effect on memory	
Cc1ccc2c(c1)c1c(n2CCc2ccc(C)nc2)CCCN(C)C1.Cl.Cl [1.1.5(2)HCl, 2,9-dimethyl-6-[2-(6-methylpyridin-3-yl)ethyl]-1,2,3,4,5,6-hexahydroazepino[4,3-b]indole dihydrochloride]						58.7±9.7	41.3±9.7	58.8±11.1	41.2±11.1	stimulating effect on memory	do not cause animals' death
Cc1ccc2c(c1)c1c(n2CCc2ccncc2)CCCN(C)C1.Cl.Cl [1.1.5(3)HCl, 2,9-dimethyl-6-[2-(pyridin-4-yl)ethyl]-1,2,3,4,5,6-hexahydroazepino[4,3-b]indole dihydrochloride]						55.5±6.2	44.5±6.2	59.9±5.9	40.1±5.9	stimulating effect on memory	do not cause animals' death
